Assay results reported in US20200345746A1, “Oxazine Derivative for Use in the Prevention of Alzheimer's Disease in at Risk Patents” (Novartis AG, priority 2016, published 2020).

Tests used:
[1] = system: sAPPβ (Swe); test: Triton TX-100 soluble sAPPβ (Swe) in APP23 mouse brain; assay type: in vivo; conditions: APP23 mice
Method: Frozen mouse forebrains were weighed and homogenized in 9 volumes (w/v) of ice-cold TBS-Complete (20 mM Tris-HCl pH 7.4, 137 mM NaCl, 1× Complete [Protease Inhibitor Cocktail Tablets: 1 836 145, Roche Diagnostics GmbH, Penzberg, Germany]) by sonication (90% duty cycle, output control 5, 40-55 pulses, [Sonifier 450, Branson]). After homogenization several 50 μl aliquots were prepared for analysis and were stored at −80° C.
Brain homogenates were extracted with 1% Triton X-100 in buffer and the resulting supernatant was considered to represent soluble forms of APP metabolites. In addition to Aβ40 and 42, we determined the N-terminal APP fragments sAPPα (direct cleavage product of α-secretase) and sAPPβ (Swe) (direct product of BACE1 cleavage). […] Since no change in the APP expression and Aβ generation is known to happen during this age, it is assumed that the increased values in the vehicle group (18-20 mo old) arise from “leakage” out of the Aβ deposits (which increase several fold, see below).

[2] = system: GFAP positive astrocytes; test: Activated astrocytes in APP23 mice (GFAP positive area); assay type: in vivo, mouse; conditions: for Distal GFAP+ area / Proximal GFAP+ area / Total GFAP+ area / non-plaque associated GFAP+ area / plaque-associated GFAP+ area: normalized to total area (100 * mean ± SEM)
From the text: (§1) Amyloid plaques were stained using a rabbit anti-Aβ primary antibody which recognizes the C-terminal part of the amyloid peptide (the antibody was raised as described in Schrader-Fischer G, Paganetti P A, 1996; Schrader-Fischer G et al., 1997). Activated astrocytes were detected using a commercial rabbit anti-GFAP (reference Z0334 from Dako Schweiz GmbH, Baar, Switzerland).
(§2) All study animals were used and brain tissue sections of 3 micrometers were freshly cut and collected on SuperFrost+ slides. The tissues sections were de-paraffinized and rehydrated under solvent-free conditions (EZprep solution) followed by antigen retrieval (demasking) performed by heat retrieval cycles for 32 min in an EDTA based buffer (CC1 solution). Subsequently, slides were blocked for 4 min using the DISCOVERY Inhibitor (reference 07017944001 (Roche)). The primary antibody diluted at 1/20,000 in antibody diluent was manually added on tissue sections and incubated for 1h at room temperature. A short post-fixation (glutaraldehyde at 0.05%) was performed before applying the multimer UltraMap-anti Rabbit HRP ready to use antibody (reference 05269717001) for 16 min.
(§3) Detection was performed using the DISCOVERY FITC® following the manufacturer's recommendations. Slides were then heat denaturated at 92° C. for 20 min before a manual application of the second primary antibody (anti-GFAP diluted at 1/2,000) and incubated for 1 h. UltraMap-anti-Rabbit HRP antibody was used again for 20 min to detect GFAP in combination with the DISCOVERY Rhodamine kit (reference 07259883001).
(§4) The slides were washed and mounted using Prolong® Gold antifade reagent (reference P36931, ThermoFisher, Switzerland) and further scanned with the Hamamatsu slide scanner instrument (NanoZoomer 2.0 HT, scanning software NDP-Scan Vers. 2.5, Hamamatsu Photonics France, Swiss Office, Solothurn, Switzerland) at the 40× objective. The scanning settings were as follows: the exposure time with the DAPI filter was set at 57 ms as well as for the FITC filter. The exposure time for the TRITC filter (detection of Rhodamine) was set at 14.2 ms.
(§5) For the beta-amyloid plaque and neuroinflammation analysis, the following sequence of steps was performed: • Slides were scanned with Hamamatsu Nanozoomer at 40× magnification. For each fluorescence labelling (DAPI, FITC and TRITC), a separate image was created • Manually outline ROIs (regions of interest) for defining cortex in brain sections for Aβ plaque assessment on the green FITC channel image, then use the resulting outline also for the other two channel images (copy resulting xml files) • Run the in-house developed ImageScope (V12.1.0.5029, Aperio Inc., USA) plug-in for creation and export of *.tif image tiles (at 10× magnification) for each of the 3 fluorescence channels
Image Batch Processing: • Obtain the combined true color image (DAPI, FITC, TRITC) for each section through accessing each individual fluorescence channel image • Segmentation of valid sample (within outlined ROI) from black unstained background • Apply adaptive thresholding technique for segmentation of objects in green channel image
(FITC-labeled Aβ plaques) • Separation of touching objects for correct subsequent individual object analysis after elimination of too small debris showing signal in the green (FITC) channel • Segmentation of TRITC-labeled objects in red channel (specific for GFAP or Iba1 staining indicating astrocytes or microglia) through morphological tophat transformation and thresholding • Feature based object classification […]

[3] = system: amyloid plaques; test: Plaque histology in APP23 mice (plaque numbers and plaque area); assay type: in vivo, mouse; conditions: for Number of large plaques / Number of medium plaques / Number of small plaques: normalized to total area (1000000 * mean ± SEM)
Method: as §1
All stainings were performed using the fully automated instrument Ventana Discovery® Ultra (Roche Diagnostics Schweiz AG, Rotkreuz, Switzerland). All chemicals were provided by Roche Diagnostic.
as §2, §3, §4
For the quantitative plaque evaluation based on image analysis, a proprietary image analysis platform (ASTORIA, Automated Stored Image Analysis) was developed based on MS Visual Studio 2010 and many functions from Matrox MIL V9 libraries (Matrox Inc, Quebec, Canada).
as §5
Image Batch Processing: • Obtain the combined true color image (DAPI, FITC, TRITC) for each section through accessing each individual fluorescence channel image • Segmentation of valid sample (within outlined ROI) from black unstained background • Apply adaptive thresholding technique for segmentation of objects in green channel image […]

## C[C@@]1(c2nc(NC(=O)c3ncc(C(F)(F)F)cc3Cl)ccc2F)CO[C@@](C)(C(F)(F)F)C(N)=N1 [Compound 1, N-(6-((3R,6R)-5-amino-3,6-dimethyl-6-(trifluoromethyl)-3,6-dihydro-2H-1,4-oxazin-3-yl)-5-fluoropyridin-2-yl)-3-chloro-5-(trifluoromethyl)picolinamide]
[1]; 0.03 g/kg vs vehicle
  sAPPβ (Swedish) change vs vehicle: −29.0%
[1]; 0.3 g/kg vs vehicle
  sAPPβ (Swedish) change vs vehicle: −77.7%
[1]; low dose 0.03 g/kg food
  reduction of soluble APP (Swe): 29%
[2]; APP23, 0.03 g/kg food
  Distal GFAP+ area: 12.16 ± 1.52
  Proximal GFAP+ area: 4.11 ± 0.86
  Total GFAP+ area: 18.56 ± 2.59
  non-plaque associated GFAP+ area: 16.27 ± 2.19
  plaque-associated GFAP+ area: 2.29 ± 0.47
[2]; APP23, 0.03 g/kg vs vehicle
  Distal GFAP+ area, change vs vehicle: −8.9%
  Proximal GFAP+ area, change vs vehicle: −28.0%
  Total GFAP+ area, change vs vehicle: −16.9%
  non-plaque associated GFAP+ area, change vs vehicle: −14.6%
  plaque-associated GFAP+ area, change vs vehicle: −29.8%
[2]; APP23, 0.3 g/kg food
  Distal GFAP+ area: 9.72 ± 1.65
  Proximal GFAP+ area: 1.91 ± 0.51
  Total GFAP+ area: 12.79 ± 2.33
  non-plaque associated GFAP+ area: 11.63 ± 2.06
  plaque-associated GFAP+ area: 1.16 ± 0.32
[2]; APP23, 0.3 g/kg vs vehicle
  Distal GFAP+ area, change vs vehicle: −27.2%
  Proximal GFAP+ area, change vs vehicle: −66.6%
  Total GFAP+ area, change vs vehicle: −42.7%
  non-plaque associated GFAP+ area, change vs vehicle: −39.0%
  plaque-associated GFAP+ area, change vs vehicle: −64.3%
[3]; APP23, 0.03 g/kg food
  Number of large plaques: 0.09 ± 0.02
  Number of medium plaques: 1.06 ± 0.14
  Number of small plaques: 10.06 ± 1.55
[3]; APP23, 0.03 g/kg vs vehicle
  Number of large plaques, change vs vehicle: −29.9%
  Number of medium plaques, change vs vehicle: −22.9%
  Number of small plaques, change vs vehicle: −30.3%
  Total plaque area, change vs vehicle: −26.4%
[3]; APP23, 0.3 g/kg food
  Number of large plaques: 0.04 ± 0.01
  Number of medium plaques: 0.58 ± 0.10
  Number of small plaques: 5.78 ± 0.75
[3]; APP23, 0.3 g/kg vs vehicle
  Number of large plaques, change vs vehicle: −68.2%
  Number of medium plaques, change vs vehicle: −57.9%
  Number of small plaques, change vs vehicle: −60.0%
  Total plaque area, change vs vehicle: −59.5%
[3]; APP23, high dose group
  reduction of plaque load (immunohistochemistry): ~70%
[3]; APP23, high dose treatment group
  reduction of the increase in plaques and total plaque area: about 60%
[3]; APP23, low dose group
  reduction of plaque load (immunohistochemistry): ~20%
[3]; APP23, low dose treatment group
  reduction of the increase in plaques and total plaque area: about 25%
